In patent publication US8158672B2, “Fluoroalkoxy-substituted 1,3-dihydro-isoindolyl compounds and their pharmaceutical uses” (Celgene Corporation, priority 2002, dated 2012):

Structure (SMILES)	melting point
O=C(CC(c1ccc(OC(F)F)c(OC(F)F)c1)N1Cc2cccc(NC(=O)C3CC3)c2C1=O)NO (centres unmarked) [Example 44, Cyclopropanecarboxylic acid {2-[1-(3,4-bis-difluoromethoxy-phenyl)-2-hydroxycarbamoyl-ethyl]-3-oxo-2,3-dihydro-1H-isoindol-4-yl}-amide]	191 to 193 °C
CCOc1cc(C(CC(=O)O)N2C(=O)c3cccc(NC(C)=O)c3C2=O)ccc1OC(F)F (centres unmarked) [Example 30, 3-(4-Acetylamino-1,3-dioxo-1,3-dihydro-isoindol-2-yl)-3-(4-difluoromethoxy-3-ethoxy-phenyl)-propionic acid]	89 to 91 °C
CN(C)C(=O)CC(c1ccc(OC(F)F)c(OCC2CC2)c1)N1Cc2cccc(N)c2C1=O (centres unmarked) [Example 14, 3-(7-Amino-1-oxo-1,3-dihydro-isoindol-2-yl)-3-(3-cyclopropylmethoxy-4-difluoromethoxy-phenyl)-N,N-dimethyl-propionamide]	70 to 72 °C
CCOc1cc(C(CC(=O)N2CCOCC2)N2Cc3cccc(NC(C)=O)c3C2=O)ccc1OC(F)F (centres unmarked) [Example 39, N-{2-[1-(4-Difluoromethoxy-3-ethoxy-phenyl)-3-morpholin-4-yl-3-oxo-propyl]-3-oxo-2,3-dihydro-1H-isoindol-4-yl}-acetamide]	164 to 166 °C
CCOc1cc(C(CC(=O)NO)N2Cc3cccc(NC(=O)C4CC4)c3C2=O)ccc1OC(F)F (centres unmarked) [Example 26, Cyclopropanecarboxylic acid {2-[1-(4-difluoromethoxy-3-ethoxy-phenyl)-2-hydroxycarbamoyl-ethyl]-3-oxo-2,3-dihydro-1H-isoindol-4-yl}-amide]	116 to 118 °C
O=C(O)CC(c1ccc(OC(F)F)c(OC(F)F)c1)N1Cc2cccc(NC(=O)C3CC3)c2C1=O (centres unmarked) [Example 45, 3-(3,4-Bis-difluoromethoxy-phenyl)-3-[7-(cyclopropanecarbonyl-amino)-1-oxo-1,3-dihydro-isoindol-2-yl]-propionic acid]	94 to 96 °C
O=C(CC(c1ccc(OC(F)F)c(OCC2CC2)c1)N1C(=O)c2ccccc2C1=O)NO (centres unmarked) [Example 8, 3-(3-Cyclopropylmethoxy-4-difluoromethoxy-phenyl) -3-(1,3-dioxo-1,3-dihydro-isoindol-2-yl)-N-hydroxy-propionamide]	129 to 131 °C
CCOc1cc(C(CC(=O)N(C)C)N2C(=O)c3cccc(NC(C)=O)c3C2=O)ccc1OC(F)F (centres unmarked) [Example 32, 3-(4-Acetylamino-1,3-dioxo-1,3-dihydro-isoindol-2-yl)-3-(4-difluoromethoxy-3-ethoxy-phenyl)-N,N-dimethyl-propionamide]	163 to 165 °C
CCOc1cc(C(CS(C)(=O)=O)N2Cc3cccc(NC(=O)C4CC4)c3C2=O)ccc1OC(F)F (centres unmarked) [Example 35, Cyclopropanecarboxylic acid {2-[1-(4-difluoromethoxy-3-ethoxy-phenyl)-2-methanesulfonyl-ethyl]-3-oxo-2,3-dihydro-1H-isoindol-4-yl}-amide]	115 to 117 °C
CCOc1cc(C(CC(=O)NO)N2Cc3cccc(NC(C)=O)c3C2=O)ccc1OC(F)F (centres unmarked) [Example 29, 3-(7-Acetylamino-1-oxo-1,3-dihydro-isoindol-2-yl)-3-(4-difluoromethoxy-3-ethoxy-phenyl)-N-hydroxy-propionamide]	121 to 123 °C
CCOc1cc(C(CC(=O)N(C)C)N2Cc3cccc(NC(=O)C4CC4)c3C2=O)ccc1OC(F)F (centres unmarked) [Example 25, Cyclopropanecarboxylic acid {2-[1-(4-difluoromethoxy-3-ethoxy-phenyl)-2-dimethylcarbamoyl-ethyl]-3-oxo-2,3-dihydro-1H-isoindol-4-yl}-amide]	135 to 137 °C
CCOc1cc(C(CC(N)=O)N2Cc3c(Cl)ccc(NC(=O)C4CC4)c3C2=O)ccc1OC(F)F (centres unmarked) [Example 37, Cyclopropanecarboxylic acid {2-[2-carbamoyl-1-(4-difluoromethoxy-3-ethoxy-phenyl)-ethyl]-7-chloro-3-oxo-2,3-dihydro-1H-isoindol-4-yl}-amide]	198 to 200 °C
COC(=O)CC(c1ccc(OC(F)F)c(OC(F)F)c1)N1Cc2c(Cl)ccc(NC(=O)C3CC3)c2C1=O (centres unmarked) [Example 41, 3-(3,4-Bis-difluoromethoxy-phenyl)-3-[4-chloro-7-(cyclopropanecarbonyl-amino)-1-oxo-1,3-dihydro-isoindol-2-yl]-propionic acid methyl ester]	175 to 177 °C
CCOc1cc(C(CC(=O)N2CCOCC2)N2C(=O)c3cccc(NC(C)=O)c3C2=O)ccc1OC(F)F (centres unmarked) [Example 38, N-{2-[1-(4-Difluoromethoxy-3-ethoxy-phenyl)-3-morpholin-4-yl-3-oxo-propyl]-1,3-dioxo-2,3-dihydro-1H-isoindol-4-yl}-acetamide]	109 to 111 °C
CC(=O)Nc1cccc2c1C(=O)N(C(CC(=O)N(C)C)c1ccc(OC(F)F)c(OC(F)F)c1)C2=O (centres unmarked) [Example 40, 3-(4-Acetylamino-1,3-dioxo-1,3-dihydro-isoindol-2-yl)-3-(3,4-bis-difluoromethoxy-phenyl)-N,N-dimethyl-propionamide]	83 to 85 °C
CCOc1cc(C(CC(=O)NO)N2C(=O)c3cccc(NC(C)=O)c3C2=O)ccc1OC(F)F (centres unmarked) [Example 33, 3-(4-Acetylamino-1,3-dioxo-1,3-dihydro-isoindol-2-yl)-3-(4-difluoromethoxy-3-ethoxy-phenyl)-N-hydroxy-propionamide]	148 to 150 °C
CCOc1cc(C(CC(N)=O)N2Cc3cccc(NC(=O)C4CC4)c3C2=O)ccc1OC(F)F (centres unmarked) [Example 24, Cyclopropanecarboxylic acid {2-[2-carbamoyl-1-(4-difluoromethoxy-3-ethoxy-phenyl)-ethyl]-3-oxo-2,3-dihydro-1H -isoindol-4-yl}-amide]	179 to 181 °C
CN(C)C(=O)CC(c1ccc(OC(F)F)c(OC(F)F)c1)N1Cc2cccc(NC(=O)C3CC3)c2C1=O (centres unmarked) [Example 42, Cyclopropanecarboxylic acid {2-[1-(3,4-bis-difluoromethoxy-phenyl)-2-dimethylcarbamoyl-ethyl]-3-oxo-2,3-dihydro-1H-isoindol-4-yl}-amide]	158 to 160 °C
CC(=O)Nc1cccc2c1C(=O)N(C(CC(=O)N(C)C)c1ccc(OC(F)F)c(OCC3CC3)c1)C2=O (centres unmarked) [Example 5, 3-(4-Acetylamino-1,3-dioxo-1,3-dihydro-isoindol-2-yl)-3-(3-cyclopropylmethoxy-4-difluoromethoxy-phenyl)-N,N -dimethyl-propionamide]	80 to 82 °C
CCOc1cc(C(CC(N)=O)N2C(=O)c3cccc(NC(C)=O)c3C2=O)ccc1OC(F)F (centres unmarked) [Example 31, 3-(4-Acetylamino-1,3-dioxo-1,3-dihydro-isoindol-2-yl)-3-(4-difluoromethoxy-3-ethoxy-phenyl)-propionamide]	178 to 180 °C
CCOc1cc(C(CC(=O)O)N2Cc3cccc(NC(C)=O)c3C2=O)ccc1OC(F)F (centres unmarked) [Example 22, 3-(7-Acetylamino-1-oxo-1,3-dihydro-isoindol-2-yl)-3-(4-difluoromethoxy-3-ethoxy-phenyl)-propionic acid]	105 to 107 °C
CCOc1cc(C(CS(C)(=O)=O)N2C(=O)c3cccc(NC(C)=O)c3C2=O)ccc1OC(F)F (centres unmarked) [Example 36]	118 to 120 °C
CCOc1cc(C(CC(N)=O)N2Cc3cccc(NC(C)=O)c3C2=O)ccc1OC(F)F (centres unmarked) [Example 27, 3-(7-Acetylamino-1-oxo-1,3-dihydro-isoindol-2-yl)-3-(4-difluoromethoxy-3-ethoxy-phenyl)-propionamide]	129 to 131 °C
CC(=O)Nc1cccc2c1C(=O)N(C(CC(N)=O)c1ccc(OC(F)F)c(OCC3CC3)c1)C2=O (centres unmarked) [Example 6, 3-(4-Acetylamino-1,3-dioxo-1,3-dihydro-isoindol-2-yl) -3-(3 cyclopropylmethoxy-4-difluoromethoxy-phenyl) -propionamide]	77 to 79 °C
CCOc1cc(C(CC(=O)N(C)C)N2Cc3cccc(NC(C)=O)c3C2=O)ccc1OC(F)F (centres unmarked) [Example 28, 3-(7-Acetylamino-1-oxo-1,3-dihydro-isoindol-2-yl)-3-(4-difluoromethoxy-3-ethoxy-phenyl)-N,N-dimethyl-propionamide]	141 to 143 °C
NC(=O)CC(c1ccc(OC(F)F)c(OC(F)F)c1)N1Cc2cccc(NC(=O)C3CC3)c2C1=O (centres unmarked) [Example 43, Cyclopropanecarboxylic acid {2-[1-(3,4-bis-difluoromethoxy-phenyl)-2-carbamoyl-ethyl]-3-oxo-2,3-dihydro-1H-isoindol-4-yl}-amide]	198 to 200 °C
